Laboratory results: paper PMC11571015, “Hybrids of Membrane-Translocating Antimicrobial Peptides Show Enhanced Activity through Membrane Permeabilization” (ACS Medicinal Chemistry Letters, 2024)
≈ marks a conversion by molar mass, not a printed value.

How the values were obtained:
[1] = tested on: E. coli; format: cell-based, E. coli (Top10 Strain); conditions: median MIC; microbroth dilution, 1:2 serial dilution 18.2 to 1.8x10-2 μM, 4 × 10^6 CFU/mL, 1 h 37°C in wash buffer pH 7.4, then TSB overnight (18-24 h), OD600; triplicate per plate; mixture: each peptide at the reported concentration
Experimental: (§1) Supplemental Information for Trevellin et al.
(§2) Peptide design and preparation […]
(§3) synthesized by GenScript (Piscataway, NJ) at >95% purity determined by HPLC and dissolved in DI water. Concentrations were measured by triplicate tryptophan absorbance readings at 280 nm (ε=5700 M–1cm–1, l=1 cm) using a ThermoScientific NanoDrop 2000 (Waltham, MA). Buforin II (BF2) included an F10W mutation used in many previous studies1-5 to allow for concentration measurements.
(§4) Bacteria included E. coli (Top10 Strain, Invitrogen/ThermoFisher) containing a plasmid for ampicillin resistance (Novagen) and/or B. subtilis (ATCC #6051). Bacterial growth was performed in TSB (trypticase soy broth) prepared at 3% w/v (30 g of media in 1 L) from BD Difco unless otherwise noted. Overnight cultures were picked from petri dishes or frozen stock and grown for 14-16 hours at 37 °C in TSB with shaking. E. coli overnight cultures were incubated with 25 μg/mL ampicillin. The overnight cultures were then diluted 1:100 in 25 mL TSB and incubated at 37 °C with shaking for 2.5 h. The culture was pelleted via centrifugation at 1500×g for 10 min at room temperature and resuspended in sterile cold wash buffer (10 mM sodium phosphate buffer and 10 mM sodium chloride, pH 7.4). These resuspended bacteria were then used for radial diffusion, microbroth dilution, and propidium iodide assays. […]
(§5) Microbroth dilution assay
(§6) Microbroth dilution assays were used to determine the minimum inhibitory concentration (MIC) of each peptide for E. coli and B. subtilis (ATCC #6051). A 1:2 serial dilution was prepared for a peptide across the top row of a 96-well plate. 100 μL of bacterial suspension (4 × 10^6 CFU/mL, diluted in sterile wash buffer, 10 mM sodium phosphate buffer and 10 mM sodium chloride, pH 7.4) and 10 μL of peptide were mixed to each well in subsequent rows of the plate. The 11 effective peptide concentrations ranged from 18.2 μM to 1.8x10-2 μM, with DI water used as a control, and each concentration was tested in triplicate per plate. After the bacteria and peptide mixtures were incubated in plates at 37°C for 1 hour, 100 μL of 6% w/v TSB was added to each well. For wells containing E. coli, ampicillin was added at a final concentration of 25 µg/ml. The plate was then incubated overnight (18-24 h) at 37°C. After incubation, OD600nm were measured using the SpectraMax M3 microplate reader (Molecular Devices). […]
(§7) relative permeability = F5/F0
(§8) Each peptide was tested with bacteria grown from at least three distinct overnight […]
(§9) The MTS assay is a colorimetric viability assay for mammalian cells. HEK 293 cells (ATCC CRL-1573) were grown in complete growth medium (EMEM, 10% fetal bovine serum, 1% penicillin-streptomycin). Cells were cultured in a T-75 maintenance flask, fed with fresh media every 1-2 days, and passaged approximately every 5-7 days once cells reached 70-90% confluence. During passaging, HEK 293 cells were plated in a 96-well plate at 20,000 cells/well and incubated for 4-6 hours (37 °C, 95% humidity, 5% CO2). Each column of cells (8 replicates) was then incubated overnight with 18.2 µM peptide or a control. After incubation, media was aspirated and refreshed for each well, […]

[2] = tested on: B. subtilis; format: cell-based, B. subtilis (ATCC #6051); conditions: 1 h, pH 7.4
Experimental: as §1, §2, §3, §4, §5, §6, §7, §8, §9

Compound: CC[C@H](C)[C@H](NC(=O)[C@H](CCCNC(=N)N)NC(=O)[C@@H](NC(=O)[C@H](CCCCN)NC(=O)[C@H](CCCCN)NC(=O)[C@H](CC(N)=O)NC(=O)[C@H](CC(=O)O)NC(=O)[C@H](CCCNC(=N)N)NC(=O)[C@H](C)NC(=O)[C@@H]1CCCN1C(=O)[C@H](CCCCN)NC(=O)[C@H](CCCNC(=N)N)NC(=O)[C@H](CC(C)C)NC(=O)[C@H](CC(C)C)NC(=O)[C@H](CCCNC(=N)N)NC(=O)[C@H](Cc1c[nH]cn1)NC(=O)[C@@H](NC(=O)[C@H](CCCNC(=N)N)NC(=O)CNC(=O)[C@@H](NC(=O)[C@@H]1CCCN1C(=O)[C@H](Cc1c[nH]c2ccccc12)NC(=O)[C@H](CCC(N)=O)NC(=O)[C@H](CC(C)C)NC(=O)CNC(=O)[C@H](C)NC(=O)[C@H](CCCNC(=N)N)NC(=O)[C@H](CO)NC(=O)[C@H](CO)NC(=O)[C@H](CCCNC(=N)N)NC(=O)[C@@H](N)[C@@H](C)O)C(C)C)C(C)C)[C@@H](C)O)C(=O)N[C@@H](Cc1c[nH]c2ccccc12)C(=O)N1CCC[C@H]1C(=O)N[C@@H](CCCNC(=N)N)C(=O)N[C@@H](Cc1c[nH]cn1)C(=O)N[C@@H](CC(C)C)C(=O)N[C@@H](CCC(N)=O)C(=O)N[C@@H](CC(C)C)C(=O)N[C@@H](C)C(=O)N[C@H](C(=O)N[C@@H](CCCNC(=N)N)C(=O)N[C@@H](CC(N)=O)C(=O)O)C(C)C [BF2-P-DesHDAP1 (BPD)]
- MIC against E. coli [1]: 1.1 µM (≈ 5.53 µg/mL)
- MIC against B. subtilis [2]: 4.6 µM (≈ 23.1 µg/mL)
